From US20260103465A1, “GLYCOGEN SYNTHASE KINASE 3 INHIBITORS AND USES THEREOF” (The Broad Institute, Inc., priority 2023, published 2026)
Read-outs that look alike come from different tables or passages of the source.

Legend:
[1] = biological target: T1, GSK3b (GST-full length GSK3b) (Homo sapiens, UniProt P49841); experiment: GSK3b TR-FRET kinase inhibition assay; assay type: biochemical
T1 construct: GST-full length GSK3b: [SignalChem G08-9G]; purchased SignalChem G08-9G
Summary of the method: (§1)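 GST-tagged full-length human kinase (1 nM), pre-incubated 30 min with compound, then reacted 100 min at ambient temperature at pH 7.5 with 200 nM biotinylated phospho-S645 glycogen synthase 631–650 peptide and ATP at 2 μM–1 mM. After EDTA quench, Tb-pSer641 antibody/streptavidin-d2 TR-FRET 665/615 ratio fitted for IC50.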

[2] = Human liver microsomal stability; assay type: in vitro ADME; conditions: human liver microsomes
Procedure: Stability of compound (5 μL of a 10 mM DMSO solution) in human liver microsomes was tested in duplicate by incubating compound at 1 μM for 60 minutes at 37° C. Compound level at 60 minutes was compared to level at 0 minutes, and percent remaining was calculated. Order by selecting Microsomal Stability in Prometheus, checking boxes for desired species. Assay Controls: microsomes with NADPH without compound-matrix interference. Microsomes plus compound without NADPH—non-enzymatic instability.

[3] = test system: MDR1-MDCK cell monolayers; experiment: MDR1/MDCK permeability assay; assay type: in vitro ADME; conditions: for MDCK Permeability (MDR1-MDCK); Mean; Papp(A-B) (10^−6 cm/s): A to B; for MDCK Permeability (MDR1-MDCK); Mean; Papp(B-A) (10^−6 cm/s): B to A; for MDCK Permeability (MDR1-MDCK); Mean; P. Ratio(B-A/A-B) Efflux Ratio / MIDCK Permeability (MDR1-MDCK); Mean; P. Ratio(B-A/A-B) Efflux Ratio: Papp B-A/A-B
Summary of the method: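 Confluent MDR1-MDCK monolayers (7–11 days old), compound dosed at 5 μM in HBSSg (≤1% DMSO) apically or basolaterally, pH 7.4 both sides, receiver with 1% BSA, N=2. Both sides sampled at 120 min and quantified by LC-MS/MS; Papp in each direction, efflux ratio B-A/A-B and recovery reported.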

[4] = biological target: T2, GSK3a (GST-full length GSK3a) (Homo sapiens, UniProt P49840); experiment: GSK3a TR-FRET kinase inhibition assay; assay type: biochemical
T2 construct: GST-full length GSK3a [SignalChem G08-10G]; purchased SignalChem G08-10G
Summary of the method: as §1

[5] = 2 μM ATP, read-out: GSK3β TR-FRET 2 μM ATP GMean IC50
[6] = 1 mM ATP, Table 4, read-out: GSK3β TR-FRET 1 mM ATP GMean IC50
[7] = 4 μM ATP, read-out: GSK3α TR-FRET 4 μM ATP GMean IC50
[8] = 1 mM ATP, Table 4, read-out: GSK3α TR-FRET 1 mM ATP GMean IC50
[9] = 10 μM ATP, read-out: GSK3b 10 μM ATP Average IC50
[10] = 100 μM ATP, read-out: GSK3b 100 μM ATP Average IC50
[11] = 1 mM ATP, Table 3, read-out: GSK3b TR-FRET 1 mM ATP Average IC50
[12] = 10 μM ATP, read-out: GSK3a 10 μM ATP Average IC50
[13] = 100 μM ATP, read-out: GSK3a 100 μM ATP Average IC50
[14] = 1 mM ATP, Table 3, read-out: GSK3a TR-FRET 1 mM ATP Average IC50

T1 sequence (P49841 whole entry): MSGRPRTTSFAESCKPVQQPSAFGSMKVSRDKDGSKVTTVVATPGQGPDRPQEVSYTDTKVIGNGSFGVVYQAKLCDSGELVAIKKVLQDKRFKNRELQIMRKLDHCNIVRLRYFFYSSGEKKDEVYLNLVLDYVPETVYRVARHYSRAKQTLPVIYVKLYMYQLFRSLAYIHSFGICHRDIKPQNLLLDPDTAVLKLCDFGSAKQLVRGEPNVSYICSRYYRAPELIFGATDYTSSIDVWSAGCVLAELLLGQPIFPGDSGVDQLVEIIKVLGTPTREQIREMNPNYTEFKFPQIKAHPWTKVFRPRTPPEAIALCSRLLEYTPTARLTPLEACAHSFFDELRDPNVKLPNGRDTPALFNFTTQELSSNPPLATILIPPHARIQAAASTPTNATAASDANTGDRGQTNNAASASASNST
T2 sequence (P49840 whole entry): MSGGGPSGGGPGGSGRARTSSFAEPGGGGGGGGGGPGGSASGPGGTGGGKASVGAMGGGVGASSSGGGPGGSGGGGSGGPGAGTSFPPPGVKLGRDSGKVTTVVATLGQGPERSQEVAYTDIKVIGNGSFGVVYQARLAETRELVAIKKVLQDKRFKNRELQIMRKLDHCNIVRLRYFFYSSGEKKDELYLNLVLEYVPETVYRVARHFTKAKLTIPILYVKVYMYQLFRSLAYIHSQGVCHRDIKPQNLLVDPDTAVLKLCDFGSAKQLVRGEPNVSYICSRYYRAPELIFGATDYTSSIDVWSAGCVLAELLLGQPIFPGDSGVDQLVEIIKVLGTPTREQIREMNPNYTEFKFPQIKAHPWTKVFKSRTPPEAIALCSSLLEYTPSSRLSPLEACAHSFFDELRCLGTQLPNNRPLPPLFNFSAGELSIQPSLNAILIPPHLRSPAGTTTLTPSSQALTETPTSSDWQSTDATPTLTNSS

| IC50 [1, 5] | IC50 [1, 6] | Microsome Stability (Human) (DMPK_BIIB); Mean; in vitro t1/2 ([2]; Table 4) | MDCK Permeability (MDR1-MDCK); Mean; Papp(A-B) (10^−6 cm/s) ([3]; Table 4) | MDCK Permeability (MDR1-MDCK); Mean; Papp(B-A) (10^−6 cm/s) ([3]; Table 4) | MDCK Permeability (MDR1-MDCK); Mean; P. Ratio(B-A/A-B) Efflux Ratio ([3]; Table 4) | IC50 [4, 7] | IC50 [4, 8] | IC50 [1, 9] | IC50 [1, 10] | IC50 [1, 11] | Microsome Stability (Human) (DMPK_BIIB); Mean; in vitro t1/2 ([2]; Table 3) | MDCK Permeability (MDR1-MDCK); Mean; Papp(A-B) (10^−6 cm/s) ([3]; Table 3) | MDCK Permeability (MDR1-MDCK); Mean; Papp(B-A) (10^−6 cm/s) ([3]; Table 3) | MIDCK Permeability (MDR1-MDCK); Mean; P. Ratio(B-A/A-B) Efflux Ratio ([3]; Table 3) | IC50 [4, 12] | IC50 [4, 13] | IC50 [4, 14] | SMILES |
| --- | --- | --- | --- | --- | --- | --- | --- | --- | --- | --- | --- | --- | --- | --- | --- | --- | --- | --- |
| – | – | – | – | – | – | – | – | 100 to 1000 nM | 100 to 1000 nM | 5000 to 20000 nM | 0.53 min | 1.3 10^−6 cm/s | 0.75 10^−6 cm/s | 0.60 | 100 to 1000 nM | 1000 to 5000 nM | 5000 to 20000 nM | CC(C)(C)Cc1ccnc2c1C(C)(c1ccccc1)C1=C(CC(C)(C)CC1=O)N2 (single isomer, unassigned) [Compound 130B] |
| – | – | – | – | – | – | – | – | ≤ 100 nM | 100 to 1000 nM | 5000 to 20000 nM | 0.55 min | 1.4 10^−6 cm/s | 0.65 10^−6 cm/s | 0.48 | ≤ 100 nM | 100 to 1000 nM | 5000 to 20000 nM | CC(C)(C)Cc1ccnc2c1C(C)(c1ccccc1)C1=C(CC(C)(C)CC1=O)N2 (single isomer, unassigned) [Compound 130A] |
| > 5000 nM | – | – | – | – | – | 1000 to 5000 nM | – | ≤ 100 nM | ≤ 100 nM | 100 to 1000 nM | 1.9 min | 20 10^−6 cm/s | 17 10^−6 cm/s | 0.93 | ≤ 100 nM | ≤ 100 nM | 100 to 1000 nM | CCC1(c2cccc(-c3c(C)nn(C)c3C)c2)C2=C(CC(C)(C)CC2=O)Nc2ncccc21 (single isomer, unassigned) [Compound 150A] |
| – | – | – | – | – | – | – | – | – | – | 100 to 1000 nM | 8.3 min | 17 10^−6 cm/s | 8.7 10^−6 cm/s | 0.50 | – | – | 100 to 1000 nM | CC1(C)CC(=O)C2=C(C1)Nc1nccc(C(F)(F)F)c1C2(C)c1ccccc1 (single isomer, unassigned) [Compound 127A] |
| – | – | 37 min | 10 10^−6 cm/s | 20 10^−6 cm/s | 2.0 | – | – | ≤ 100 nM | ≤ 100 nM | 1000 to 5000 nM | 49 min | 23 10^−6 cm/s | 16 10^−6 cm/s | 0.68 | ≤ 100 nM | ≤ 100 nM | 100 to 1000 nM | CCC1(c2ccccc2)C2=C(CC(C)(C)CC2=O)Nc2ncc(F)cc21 (single isomer, unassigned) [Compound 114A] |
| ≤ 100 nM | ≤ 100 nM | 5.6 min | 5.2 10^−6 cm/s | 33 10^−6 cm/s | 6.4 | ≤ 100 nM | ≤ 100 nM | – | – | 1000 to 5000 nM | – | – | – | – | – | – | 100 to 1000 nM | CCC1(c2cccc(-c3c(F)cncc3OC)c2)C2=C(CC(C)(C)CC2=O)Nc2ncc(F)cc21 (single isomer, unassigned) [Compound 161B] |

Further lines, the compound ahead of its results:

| SMILES | IC50 [1, 5] | IC50 [1, 6] | Microsome Stability (Human) (DMPK_BIIB); Mean; in vitro t1/2 ([2]; Table 4) | MDCK Permeability (MDR1-MDCK); Mean; Papp(A-B) (10^−6 cm/s) ([3]; Table 4) | MDCK Permeability (MDR1-MDCK); Mean; Papp(B-A) (10^−6 cm/s) ([3]; Table 4) | MDCK Permeability (MDR1-MDCK); Mean; P. Ratio(B-A/A-B) Efflux Ratio ([3]; Table 4) | IC50 [4, 7] | IC50 [4, 8] | IC50 [1, 9] | IC50 [1, 10] | IC50 [1, 11] | Microsome Stability (Human) (DMPK_BIIB); Mean; in vitro t1/2 ([2]; Table 3) | MDCK Permeability (MDR1-MDCK); Mean; Papp(A-B) (10^−6 cm/s) ([3]; Table 3) | MDCK Permeability (MDR1-MDCK); Mean; Papp(B-A) (10^−6 cm/s) ([3]; Table 3) | MIDCK Permeability (MDR1-MDCK); Mean; P. Ratio(B-A/A-B) Efflux Ratio ([3]; Table 3) | IC50 [4, 12] | IC50 [4, 13] | IC50 [4, 14] |
| --- | --- | --- | --- | --- | --- | --- | --- | --- | --- | --- | --- | --- | --- | --- | --- | --- | --- | --- |
| CCC1(c2cccc(-c3ccnc(C)c3C)c2)C2=C(CC(C)(C)CC2=O)Nc2ncccc21 (single isomer, unassigned) [147 B] | ≤ 100 nM | 1000 to 5000 nM | 14 min | 8.1 10^−6 cm/s | 31 10^−6 cm/s | 3.8 | ≤ 100 nM | 100 to 1000 nM | – | – | – | – | – | – | – | – | – | – |
| CCC1(c2cccc(-c3cccnc3)c2)C2=C(CC(C)(C)CC2=O)Nc2ncccc21 (single isomer, unassigned) [Compound 1015A] | ≤ 100 nM | – | 2.8 min | 4.7 10^−6 cm/s | 44 10^−6 cm/s | 9.5 | ≤ 100 nM | – | – | – | – | – | – | – | – | – | – | – |
| CCC1(c2cccc(-c3ccnn3C)c2)C2=C(CC(C)(C)CC2=O)Nc2ncccc21 (single isomer, unassigned) [Compound 1019A] | ≤ 100 nM | 1000 to 5000 nM | 4.8 min | 4.2 10^−6 cm/s | 39 10^−6 cm/s | 9.5 | ≤ 100 nM | 100 to 1000 nM | – | – | – | – | – | – | – | – | – | – |
| CCC1(c2cccc(O)c2)C2=C(CC(C)(C)CC2=O)Nc2ncccc21 (single isomer, unassigned) [Compound 1004B] | > 5000 nM | – | 5.3 min | 0.7 10^−6 cm/s | 47 10^−6 cm/s | 65 | 1000 to 5000 nM | – | – | – | – | – | – | – | – | – | – | – |
| CCC1(c2ccccc2)C2=C(Nc3ncccc31)C(F)C(C)(C)CC2=O (single isomer, unassigned) [Compound 1006C] | 1000 to 5000 nM | – | 37 min | 18 10^−6 cm/s | 31 10^−6 cm/s | 1.8 | 1000 to 5000 nM | – | – | – | – | – | – | – | – | – | – | – |
| CCC1(c2cccc(-c3ccnc4c3CCCC4)c2)C2=C(CC(C)(C)CC2=O)Nc2ncccc21 (single isomer, unassigned) [Compound 1039B] | ≤ 100 nM | 1000 to 5000 nM | 4.6 min | 6.6 10^−6 cm/s | 22 10^−6 cm/s | 3.3 | ≤ 100 nM | 100 to 1000 nM | – | – | – | – | – | – | – | – | – | – |
| CCC1(c2cccc(-c3ccncc3C)c2)C2=C(CC(C)(C)CC2=O)Nc2ncccc21 (single isomer, unassigned) [Compound 1020B] | ≤ 100 nM | 1000 to 5000 nM | 6.4 min | 14 10^−6 cm/s | 24 10^−6 cm/s | 1.8 | ≤ 100 nM | 100 to 1000 nM | – | – | – | – | – | – | – | – | – | – |
| CCC1(c2cccc(-c3cncn3C(C)C)c2)C2=C(CC(C)(C)CC2=O)Nc2ncc(F)cc21 (single isomer, unassigned) [Compound 1038B] | 100 to 1000 nM | – | 13 min | 0.70 10^−6 cm/s | 34 10^−6 cm/s | 49 | ≤ 100 nM | – | – | – | – | – | – | – | – | – | – | – |
| CCC1(c2cccc(-c3ccncc3OC)c2)C2=C(CC(C)(C)CC2=O)Nc2ncc(F)cc21 (single isomer, unassigned) [Compound 1037B] | ≤ 100 nM | – | 5.6 min | 2.7 10^−6 cm/s | 26 10^−6 cm/s | 9.6 | ≤ 100 nM | – | – | – | – | – | – | – | – | – | – | – |
| CCC1(c2cccc(-c3ccnc4c3CCC4)c2)C2=C(CC(C)(C)CC2=O)Nc2ncccc21 (single isomer, unassigned) [Compound 1034B] | ≤ 100 nM | – | 4.1 min | 7.6 10^−6 cm/s | 25 10^−6 cm/s | 3.3 | ≤ 100 nM | – | – | – | – | – | – | – | – | – | – | – |
| CC1(C)CC(=O)C2=C(C1)Nc1ncccc1C2(C)c1ccccc1 (single isomer, unassigned) [Compound 101A] | – | – | – | – | – | – | – | – | ≤ 100 nM | 100 to 1000 nM | 1000 to 5000 nM | 37 min | 30 10^−6 cm/s | 22 10^−6 cm/s | 0.72 | ≤ 100 nM | 100 to 1000 nM | 1000 to 5000 nM |
